Values belong to the compound of their own block, whether it stands above or below them.
Key:
HeLa cells [1] = experiment: In vitro cellular uptake in HeLa cells (fluorescence microscopy); assay type: cell-based
HeLa cells [2] = experiment: In vitro hyperthermia treatment, HeLa cell viability; assay type: cell-based; conditions: 2 hours incubation, with or without hyperthermia treatments
Description: Cell viability tests in presence and in absence of AMF were performed in order to evaluate the effect of combined treatments (hyperthermia and chemotherapy) on HeLa cell viability (FIG. 31). Hela cells were incubated for two hours with no additives, Dox, CB[7]NPs or Dox-CB[7]NPs. Selected samples were then subjected to an alternating magnetic field (464 kHz) for one hour. […] The lack of significant cytotoxicity in the cells incubated with Dox or CB[7]NPs is consistent with the limited cellular uptake of the free drug or the lack of toxicity of the nanocarrier respectively.
In vitro hyperthermia treatment. Viability tests on HeLa cells were performed to investigate the combined effect of both hyperthermia and chemotherapy treatment. Petri-dishes were seeded with HeLa cells (˜50000 cells/mL) and incubated at 37° C. After 24 hours, DMEM was removed, replaced with the following solutions: DMEM (control), Dox ([Dox]=76 μM) and Dox-CB[7]NPs ([Dox]=76 μM, [Iron]=0.04 M) and incubated for 2 hours. […] Two cell viability readings were taken, immediately after hyperthermia treatment and 18 hours after hyperthermia. For cell viability studies 200 μL of CTB per 1 mL of DMEM was added to each petri-dish and incubated for 6 hours after which the medium with CTB was transferred to 96 well plate to take the fluorescence reading.

HeLa cells [3] = experiment: Morphology of HeLa cells after hyperthermia and chemotherapy; assay type: cell-based; conditions: one-hour hyperthermia, confocal microscopy
Description: Morphology of the cells after hyperthermia and chemotherapy. To assess changes in cell morphology, HeLa cells (˜50000 cells/mL) were cultured in petri-dishes and incubated at 37° C. After 24 hours, DMEM was removed, replaced with the following solutions: DMEM (control), Dox ([Dox]=76 μM) and Dox-CB[7]NPs ([Dox]=76 μM, [Iron]=0.04 M) and incubated for 2 hours. After the treatment, the cells were washed with PBS 3 times and 1 mL of DMEM was added. One petri-dish from each condition was subjected to one hour of magnetic hyperthermia (frequency=464 kHz, current=26.8 kAm^−1) while other petri-dishes were used as control.
After magnetic hyperthermia treatment, DMEM was removed, the cells were washed with PBS three times and 1 ml of prepared formaldehyde solution (Vformaldehyde=1 mL, Vdistilled water=9 mL) was added to the cells for […] to fix them. After removal of formaldehyde solution the cells were allowed to dry at room temperature for 48 hours in a dark place to prevent photodegradation of Dox. Confocal microscopy used observe changes in the morphology of treated cells compared to control cells.

HCT116 cells [4] = experiment: cells; conditions: Homo sapiens, HCT-116, 48 h
Description: In order to determine the effectiveness of our nanoparticle system, we conducted a cancer cell viability study on our nanoparticle-drug system and compared it to effectiveness of the free drug (without the NP system). The Promega CellTiter-Blue® Cell Viability Assay was used. The drug, in one condition, and the Drug-NP complex, in another, were incubated with HCT-116 colon cancer cells for 48 hours. Different concentrations of the drug were used (ranging from 0 nM to 500 nM). After the designated incubation time, the IC50—the concentration of the drug needed to inhibit 50% of the cancer cells incubated—was then measured for both conditions.

HCT116 cells [5] = experiment: In vitro cytotoxicity assay, CellTiter-Blue; assay type: cell-based, human
Description: In vitro cytotoxicity assay. Cell viability was evaluated using the Promega CellTiter-Blue® Cell Viability assay. It uses the indicator dye resazurin to measure the metabolic capacity of cells—an indicator of cell viability. Viable cells retain the ability to reduce resazurin into resorufin, which is highly fluorescent. […] HCT116 cells were seeded at a density of 5×10^4 cells per well in 96-well flat-bottom plates and incubated in 10% FBS-medium for 24 hours. […] After 24 hours incubation, cells were washed with phosphate buffered saline (PBS, Amresco Biotechnolgy grade) and incubated with 20 μL of CellTiter-Blue® Reagent for additional 6 hours at 37° C. The fluorescence corresponding to the resorufin (which reflects the relative viable cell number) was measured at 590 nm using a Synergy H1 Hybrid Reader Biotek. The measurement was performed on untreated cells as a blank control.

Compound: COc1cccc2c1C(=O)c1c(O)c3c(c(O)c1C2=O)C[C@@](O)(C(=O)CO)C[C@@H]3O[C@H]1C[C@H](N)[C@H](O)[C@H](C)O1 [Dox, Doxorubicin]
- fluorescence of treated cells (HeLa cells [1]; 2 hours, [DOX]=10 μM): weakly fluorescent
- normalized fluorescence intensity relative to red emission of Dox-CB[7]NPs (HeLa cells [1]; 3 hours at 37° C., same dose of Dox, excitation at 488 nm): 40%
- reduction in viability (HeLa cells [2]): Minimal reductions in viability
- cell morphology after hyperthermia session (HeLa cells [3]): normal morphology

- IC50 (HCT116 cells [4]): 71 nM
Compound: CC(=O)O[C@H]1C(=O)[C@@]2(C)[C@H]([C@H](OC(=O)c3ccccc3)[C@]3(O)C[C@H](OC(=O)[C@H](O)[C@@H](NC(=O)c4ccccc4)c4ccccc4)C(C)=C1C3(C)C)[C@]1(OC(C)=O)CO[C@@H]1C[C@@H]2O [Paclitaxel]

Compound: cucurbit[7]uril [CB[7]]
- cytotoxic effects (HCT116 cells [5]; 24 hours of incubation, concentrations as high as 100 μM): Neither CB[7] nor CB[7]NPs displayed cytotoxic effects
- cytotoxic effects (HCT116 cells [5]; CB[7] concentrations of 1 to 100 μM, 24 hour incubation): neither CB[7] nor CB[7]NPs elicit cytotoxic effects
